Where two headings read alike, the source gives them in different places.
Tests used:
[1] = system: New Zealand white rabbits (males), shaved uninjured skin; settings: in vivo
Experimental: (§1) Using three New Zealand white rabbits (males), a solution prepared by dissolving 0.5 g of 5-aminolevulinic acid phosphate in 0.5 ml of distilled water (pH 3.1) was applied for 4 hours to a 2.5 cm square area of the shaved uninjured skin of each animal which was then observed for 1, 24, 48 and 72 hours.

[2] = pH of solution of 0.5 g in 0.5 ml of distilled water; format: physicochemical
Experimental: as §1

[3] = Test on the generation of silver chloride precipitation with silver nitrate; format: physicochemical; settings: 0.5 g with 0.5 g of silver nitrate in 10 ml of ion exchange water, 5 minutes
Experimental: In 10 ml of ion exchange water, 0.5 g of 5-aminolevulinic acid phosphate and 0.5 g of silver nitrate were dissolved, the mixture was allowed to stand still for 5 minutes, and conditions of the liquid was observed. […] In this connection, 0.5 g of 5-aminolevulinic acid hydrochloride and 0.5 g of silver nitrate were dissolved in 10 ml of ion exchange water and allowed to stand still for 5 minutes, and conditions of the liquid was observed.
In 10 ml of ion exchange water, 0.5 g of 5-aminolevulinic acid nitrate and 0.5 g of silver nitrate were dissolved, the mixture was allowed to stand still for 5 minutes, and conditions of the liquid was observed.
In this connection, 0.5 g of 5-aminolevulinic acid hydrochloride and 0.5 g of silver nitrate were dissolved in 10 ml of ion exchange water and allowed to stand still for 5 minutes, and conditions of the liquid was observed.
In 10 ml of ion exchange water, 0.5 g of 5-aminolevulinic acid p-toluenesulfonate and 0.5 g of silver nitrate were dissolved, the mixture was allowed to stand still for 5 minutes, and conditions of the liquid was observed.

apple variety “Fuji” = assay: Coloring test of apple; format: in vivo
Experimental: The 5-aminolevulinic acid phosphate obtained in Example 1 was dissolved in ion exchange water to the predetermined concentration shown in the following table. A spreader (“Approach BI” manufactured by Maruwa Biochemical) was added to the liquid to a concentration of 0.1% by weight. The pH was adjusted using phosphoric acid.
An aqueous 5-aminolevulinic acid hydrochloride solution was prepared in the same manner, except that the above-described 5-aminolevulinic acid phosphate was changed to 5-aminolevulinic acid hydrochloride and the phosphoric acid for pH adjustment was changed to hydrochloric acid.
The thus prepared liquid was sprayed at a ratio of 2 liters per branch on three main branches where young fruits of an apple variety “Fuji” bored but not yet colored into red (September 15). About 2 months thereafter (November 6), the apples were harvested and their coloring degree was examined. A color meter CR-200 manufactured by MINOLTA CAMERA was used for the measurement of color.
The 5-aminolevulinic acid nitrate obtained in Example 16 was dissolved in ion exchange water to the predetermined concentration shown in Table 16. A spreader (“Approach BI” manufactured by Maruwa Biochemical) was added to the liquid to a concentration of 0.1% by weight. The pH was adjusted using nitric acid.
A solution was prepared in the same manner, except that the above-described 5-aminolevulinic acid nitrate was changed to 5-aminolevulinic acid hydrochloride and the nitric acid was changed to hydrochloric acid.
The 5-aminolevulinic acid p-toluenesulfonate obtained in Example 23 was dissolved in ion exchange water to the predetermined concentration shown in Table 24. A spreader (“Approach B1” manufactured by Maruwa Biochemical) was added to the liquid to a concentration of 0.1% by weight. The pH was adjusted using p-toluenesulfonic acid.
A solution was prepared in the same manner, except that the above-described 5-aminolevulinic acid p-toluenesulfonate was changed to 5-aminolevulinic acid hydrochloride and the p-toluenesulfonic acid was changed to hydrochloric acid.

Rice seeds (Akinishiki) = assay: Plant growth regulation effect; format: in vivo; settings: ratio to untreated plot
Experimental: Rice seeds (Akinishiki) were soaked in Benlate (manufactured by Sumika Takeda Engei) (200 times) aqueous solution for a whole day and night and then incubated at 30° C. under a dark condition to effect hastening of germination. Seeds of even pigeon breast stage were selected, 10 seeds were inserted using a pair of tweezers into a groove on one expanded polyethylene sheet, which was made using a cutter knife, and this sheet was floated on a tall Petri dish filled with 150 ml of 5-aminolevulinic acid phosphate of respective concentrations shown in Table 11 and incubated at 25° C. for 24 hours under 5,000 lux continuous light irradiation. The number of repetitions was set to 3 repetitions for each concentration. Examination was carried out three days thereafter, and lengths of the first leaf sheath and seminal root in each plot were measured to calculate their ratios to those in the untreated plot and to calculate average values thereof.

[4] = male, New Zealand white, rabbit, 1 h
[5] = male, New Zealand white, rabbit, 24 h
[6] = male, New Zealand white, rabbit, 48 h
[7] = male, New Zealand white, rabbit, 72 h

Cl.NCC(=O)CCC(=O)O [5-aminolevulinic acid hydrochloride, reference compound]
judgement by the OECD Guideline from pH (animal test not carried out) ([1]; rabbit): judged corrosive
pH of solution [2]: ≤ 2.0
generation of precipitate [3]: Generation of the precipitate was found
Coloring, L (apple variety “Fuji”; 100 ppm (pH 5.0)): 42.28
Coloring, a (apple variety “Fuji”; 100 ppm (pH 5.0)): 25.96
Coloring, b (apple variety “Fuji”; 100 ppm (pH 5.0)): 14.72
Coloring, L (apple variety “Fuji”; 200 ppm (pH 4.8)): 42.34
Coloring, a (apple variety “Fuji”; 200 ppm (pH 4.8)): 30.92
Coloring, b (apple variety “Fuji”; 200 ppm (pH 4.8)): 14.41
First leaf sheath length (%) (Rice seeds (Akinishiki); 1 ppm): 107%
Seminal root length (%) (Rice seeds (Akinishiki); 1 ppm): 103%
First leaf sheath length (%) (Rice seeds (Akinishiki); 10 ppm): 101%
Seminal root length (%) (Rice seeds (Akinishiki); 10 ppm): 96%
First leaf sheath length (%) (Rice seeds (Akinishiki); 100 ppm): 98%
Seminal root length (%) (Rice seeds (Akinishiki); 100 ppm): 109%

NCC(=O)CCC(=O)O.O=P(O)(O)O [5-aminolevulinic acid phosphate, 5-aminolevulinic Acid Phosphate]
Formation of dropsy and edema (formed numbers), per rabbit ([1]; male, New Zealand white, 1 h): 0
Formation of erythema and dry crust (formed numbers), per rabbit ([1]; male, New Zealand white, 1 h): 1
Formation of dropsy and edema (formed numbers), per rabbit ([1]; male, New Zealand white, 24 h): 0
Formation of erythema and dry crust (formed numbers), per rabbit ([1]; male, New Zealand white, 24 h): 1
Formation of dropsy and edema (formed numbers), per rabbit ([1]; male, New Zealand white, 48 h): 0
Formation of erythema and dry crust (formed numbers), per rabbit ([1]; male, New Zealand white, 48 h): 0
Formation of dropsy and edema (formed numbers), per rabbit ([1]; male, New Zealand white, 72 h): 0
Formation of erythema and dry crust (formed numbers), per rabbit ([1]; male, New Zealand white, 72 h): 0
Total formed numbers after 24 hours and 72 hours ([1]; male, New Zealand white, rabbit): Total formed numbers after 24 hours and 72 hours: 3
Formation of dropsy and edema (formed numbers) [1, 4]: 0
Formation of dropsy and edema, Total of three rabbits [1, 4]: 0
Formation of erythema and dry crust (formed numbers) [1, 4]: 0
Formation of erythema and dry crust, Total of three rabbits [1, 4]: 3
skin reaction observed ([1]; male, New Zealand white, rabbit, 4 h): very slight red spots were observed within 24 hours, but became normal when observed after 48 hours
Formation of dropsy and edema (formed numbers) [1, 5]: 0
Formation of dropsy and edema, Total of three rabbits [1, 5]: 0
Formation of erythema and dry crust (formed numbers) [1, 5]: 0
Formation of erythema and dry crust, Total of three rabbits [1, 5]: 3
Formation of dropsy and edema (formed numbers) [1, 6]: 0
Formation of dropsy and edema, Total of three rabbits [1, 6]: 0
Formation of erythema and dry crust (formed numbers) [1, 6]: 0
Formation of erythema and dry crust, Total of three rabbits [1, 6]: 0
Formation of dropsy and edema (formed numbers) [1, 7]: 0
Formation of dropsy and edema, Total of three rabbits [1, 7]: 0
Formation of erythema and dry crust (formed numbers) [1, 7]: 0
Formation of erythema and dry crust, Total of three rabbits [1, 7]: 0
skin stimulation ([1]; rabbit): skin stimulation was not observed
stimulation classification (United Nations recommendation GHS) ([1]; rabbit): does not come under a stimulus substance
pH of solution [2]: 3.1
generation of precipitate [3]: Generation of the precipitate was not found
Coloring, L (apple variety “Fuji”; 100 ppm (pH 5.0)): 42.37
Coloring, a (apple variety “Fuji”; 100 ppm (pH 5.0)): 27.45
Coloring, b (apple variety “Fuji”; 100 ppm (pH 5.0)): 14.54
Coloring, L (apple variety “Fuji”; 200 ppm (pH 5.4)): 42.43
Coloring, a (apple variety “Fuji”; 200 ppm (pH 5.4)): 31.06
Coloring, b (apple variety “Fuji”; 200 ppm (pH 5.4)): 14.63
Coloring of red compared with 5-aminolevulinic acid hydrochloride (apple variety “Fuji”; in vivo): Coloring of red was denser
First leaf sheath length (%) (Rice seeds (Akinishiki); 1 ppm): 102%
Seminal root length (%) (Rice seeds (Akinishiki); 1 ppm): 106%
First leaf sheath length (%) (Rice seeds (Akinishiki); 10 ppm): 106%
Seminal root length (%) (Rice seeds (Akinishiki); 10 ppm): 108%
First leaf sheath length (%) (Rice seeds (Akinishiki); 100 ppm): 101%
Seminal root length (%) (Rice seeds (Akinishiki); 100 ppm): 101%

Source: patent publication US8471061B2 (priority 2004, dated 2013)
